Assay results reported in patent publication US8278304B2, “Substituted 4-hydroxypyrimidine-5-carboxamides” (Merck Sharp & Dohme Corp., priority 2008, dated 2012).
Structures can show the parent of a compound that is named as a salt.

Molecular target: T1, PHD2 (Homo sapiens, UniProt Q9GZT9)
T1 construct: FLAG-tagged full length PHD2 expressed in and purified from baculovirus-infected Sf9 cells; FLAG; made in house; host or cells: baculovirus-infected Sf9 cells
Experiment: PHD2 / HIF-1α peptide hydroxylation assay, time resolved fluorescence (VHL complex detection)
Assay type: biochemical
Details: FLAG-tagged full length PHD2; 0.2 μM 2-oxoglutarate, 0.5 μM HIF-1α peptide; read-out: PHD2 Activity (PHD2 binding activity expressed as IC50 (nM))
How it was run: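 Sf9-expressed FLAG-tagged full-length PHD2 (0.15 μg/ml) preincubated with compound 30 min at room temperature in Tris pH 7.4 buffer with 10 μM ferrous sulfate, 1 mM ascorbate and catalase. Reaction started with 0.2 μM 2-oxoglutarate and 0.5 μM biotinylated HIF-1α peptide (final); hydroxylation detected by time-resolved fluorescence via VHL complex binding.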

T1 sequence (Q9GZT9 whole entry): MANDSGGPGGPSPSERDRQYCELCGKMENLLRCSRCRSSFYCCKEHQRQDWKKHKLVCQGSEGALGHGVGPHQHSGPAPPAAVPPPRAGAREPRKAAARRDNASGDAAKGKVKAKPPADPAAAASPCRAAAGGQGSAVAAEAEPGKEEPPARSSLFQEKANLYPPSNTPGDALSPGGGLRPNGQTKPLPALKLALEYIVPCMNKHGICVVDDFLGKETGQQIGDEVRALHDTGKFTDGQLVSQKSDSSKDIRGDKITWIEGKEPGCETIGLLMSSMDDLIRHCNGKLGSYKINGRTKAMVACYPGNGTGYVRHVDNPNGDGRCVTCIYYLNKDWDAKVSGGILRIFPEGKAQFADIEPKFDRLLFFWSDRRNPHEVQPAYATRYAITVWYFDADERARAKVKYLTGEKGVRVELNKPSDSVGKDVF

C[C@H](NC(=O)c1cnc(-n2cccn2)nc1O)c1ccc2ccccc2c1 [Example 121, 4-hydroxy-N-[(1S)-1-(naphthalen-2-yl)ethyl]-2-(1H-pyrazol-1-yl)pyrimidine-5-carboxamide]
IC50: ≤ 10 nM

COc1ccc([C@H](C)NC(=O)c2cnc(-n3cc(C)cn3)nc2O)cc1 [Example 134, 4-hydroxy-N-[(1S)-1-(4-methoxyphenyl)ethyl]-2-(4-methyl-1H-pyrazol-1-yl)pyrimidine-5-carboxamide]
IC50: ≤ 10 nM

O=C(NC1(c2ccccc2)CCCCC1)c1cnc(-c2cccnn2)nc1O [Example 27, 4-hydroxy-N-(1-phenylcyclohexyl)-2-pyridazin-3-ylpyrimidine-5-carboxamide]
IC50: ≤ 10 nM

Cc1nc(-c2ncc(C(=O)NCc3ccc(Cl)cc3Cl)c(O)n2)cs1 [Example 37, N-(2,4-dichlorobenzyl)-4-hydroxy-2-(2-methyl-1,3-thiazol-4-yl)pyrimidine-5-carboxamide]
IC50: 10 to 100 nM

Cc1nc(-c2ncc(C(=O)Nc3ccc(F)cc3Cl)c(O)n2)cs1 [Example 38, N-(2-chloro-4-fluorophenyl)-4-hydroxy-2-(2-methyl-1,3-thiazol-4-yl)pyrimidine-5-carboxamide]
IC50: 100 to 1000 nM

O=C(NC(c1ccccc1)c1ccccn1)c1cnc(-c2cccnn2)nc1O (stereo not shown) [Example 136, 4-hydroxy-N-[phenyl(pyridin-2-yl)methyl]-2-pyridazin-3-ylpyrimidine-5-carboxamide trifluoroacetate (salt)]
IC50: ≤ 10 nM

COCc1ccc(C(NC(=O)c2cnc(-c3cccnn3)nc2O)c2ccc(OC)cc2)cc1 (racemic) [Example 181]
IC50: ≤ 10 nM

CC[C@H](NC(=O)c1cnc(-c2nc(C)cs2)nc1O)c1ccccc1 [Example 41, 4-Hydroxy-2-(4-methyl-1,3-thiazol-2-yl)-N-[(1S)-1-phenylpropyl]pyrimidine-5-carboxamide]
IC50: 100 to 1000 nM

O=C(N[C@H](c1ccccc1)[C@H](O)c1ccccc1)c1cnc(-n2cccn2)nc1O [Example 127, 4-hydroxy-N-[(1R,2R)-2-hydroxy-1,2-diphenylethyl]-2-(1H-pyrazol-1-yl)pyrimidine-5-carboxamide]
IC50: ≤ 10 nM

COc1ccc(C(NC(=O)c2cnc(-c3cccnn3)nc2O)c2ccc(C#N)cc2)c(OC)c1 (single isomer, unassigned) [Example 155, N-[(4-cyanophenyl)(2,4-dimethoxyphenyl)methyl]-4-hydroxy-2-(pyridazin-3-yl)pyrimidine-5-carboxamide]
IC50: ≤ 10 nM

CC[C@@H](NC(=O)c1cnc(-c2csc(C)n2)nc1O)c1ccccc1 [Example 36, 4-Hydroxy-2-(2-methyl-1,3-thiazol-4-yl)-N-[(1R)-1-phenylpropyl]pyrimidine-5-carboxamide]
IC50: 10 to 100 nM

N#Cc1ccc(C(NC(=O)c2cnc(-c3cccnn3)nc2O)C2CCCCC2)cc1 (single isomer, unassigned) [Example 162, N-[(4-cyanophenyl)(cyclohexyl)methyl]-4-hydroxy-2-(pyridazin-3-yl)pyrimidine-5-carboxamide]
IC50: 100 to 1000 nM

COc1ccc(C(NC(=O)c2cnc(-c3cccnn3)nc2O)c2ccc(C#N)cc2)cc1 (single isomer, unassigned) [Example 151, N-[(4-cyanophenyl)(4-methoxyphenyl)methyl]-4-hydroxy-2-(pyridazin-3-yl)pyrimidine-5-carboxamide]
IC50: ≤ 10 nM

COc1ccc(C(NC(=O)c2cnc(-c3cccnn3)nc2O)c2ccc(C)nc2)cc1 (single isomer, unassigned) [Example 146, 4-hydroxy-N-[(4-methoxyphenyl)(6-methylpyridin-3-yl)methyl]-2-(pyridazin-3-yl)pyrimidine-5-carboxamide]
IC50: ≤ 10 nM

COc1cccc([C@H](C)NC(=O)c2cnc(-n3cccn3)nc2O)c1 [Example 126, 4-hydroxy-N-[(1S)-1-(3-methoxyphenyl)ethyl]-2-(1H-pyrazol-1-yl)pyrimidine-5-carboxamide]
IC50: ≤ 10 nM

O=C(NCc1ccccc1Cl)c1cnc(-c2cccnn2)nc1O [Example 24, N-(2-chlorobenzyl)-4-hydroxy-2-pyridazin-3-ylpyrimidine-5-carboxamide]
IC50: 10 to 100 nM

COc1ccc(C(NC(=O)c2cnc(-c3cccnn3)nc2O)c2ccc(SC)cc2)cc1 (stereo not shown) [Example 178, 4-hydroxy-N-{(4-methoxyphenyl)[4-(methylsulfanyl)phenyl]methyl}-2-(pyridazin-3-yl)pyrimidine-5-carboxamide]
IC50: ≤ 10 nM

N#Cc1ccc(C(NC(=O)c2cnc(-c3cccnn3)nc2O)C2CCCCC2)cc1 (single isomer, unassigned) [Example 163, N-[(4-cyanophenyl)(cyclohexyl)methyl]-4-hydroxy-2-(pyridazin-3-yl)pyrimidine-5-carboxamide]
IC50: ≤ 10 nM

COc1ccc(C(NC(=O)c2cnc(-c3cccnn3)nc2O)c2ccc(OC)nc2)cc1 (stereo not shown) [Example 170, 4-hydroxy-N-[(4-methoxyphenyl)(6-methoxypyridin-3-yl)methyl]-2-(pyridazin-3-yl)pyrimidine-5-carboxamide]
IC50: ≤ 10 nM

CC(NC(=O)c1cnc(-n2cccn2)nc1O)c1ccncc1 (stereo not shown) [Example 86, 4-hydroxy-2-(1H-pyrazol-1-yl)-N-(1-pyridin-4-ylethyl)pyrimidine-5-carboxamide trifluoroacetate (salt)]
IC50: ≤ 10 nM

C[C@H](NC(=O)c1cnc(-c2cccnn2)nc1O)c1ccc(Oc2ccccc2)cc1 [Example 137, 4-hydroxy-N-[(1S)-1-(4-phenoxyphenyl)ethyl]-2-(pyridazin-3-yl)pyrimidine-5-carboxamide]
IC50: ≤ 10 nM

O=C(NCc1cc(C(F)(F)F)cc(C(F)(F)F)c1)c1cnc(-n2cccn2)nc1O [Example 65, N-[3,5-bis(trifluoromethyl)benzyl]-4-hydroxy-2-(1H-pyrazol-1-yl)pyrimidine-5-carboxamide]
IC50: 100 to 1000 nM

O=C(N[C@H](c1ccccc1)[C@@H](O)c1ccccc1)c1cnc(-n2cccn2)nc1O [Example 120, 4-hydroxy-N-[(1R,2S)-2-hydroxy-1,2-diphenylethyl]-2-(1H-pyrazol-1-yl)pyrimidine-5-carboxamide]
IC50: ≤ 10 nM

CC[C@H](NC(=O)c1cnc(-c2csc(C)n2)nc1O)c1ccccc1 [Example 35, 4-Hydroxy-2-(2-methyl-1,3-thiazol-4-yl)-N-[(1S)-1-phenylpropyl]pyrimidine-5-carboxamide]
IC50: 10 to 100 nM

Cc1ccc(Oc2ccc(CNC(=O)c3cnc(-n4cccn4)nc3O)cc2)cc1 [Example 97, 4-hydroxy-N-[4-(4-methylphenoxy)benzyl]-2-(1H-pyrazol-1-yl)pyrimidine-5-carboxamide]
IC50: ≤ 10 nM

O=C(NCc1ccc(C(F)(F)F)cc1F)c1cnc(-n2cccn2)nc1O [Example 68, N-[2-fluoro-4-(trifluoromethyl)benzyl]-4-hydroxy-2-(1H-pyrazol-1-yl)pyrimidine-5-carboxamide]
IC50: 10 to 100 nM

COc1ccc(C(NC(=O)c2cnc(-c3cccnn3)nc2O)c2ccc(C)nc2)cc1 (stereo not shown) [Example 114, 4-Hydroxy-N-[(4-methoxyphenyl)(6-methylpyridin-3-yl)methyl]-2-pyridazin-3-ylpyrimidine-5-carboxamide]
IC50: ≤ 10 nM

Cc1nc(-c2ncc(C(=O)Nc3ccc(C(F)(F)F)cc3)c(O)n2)cs1 [Example 34, 4-Hydroxy-2-(2-methyl-1,3-thiazol-4-yl)-N-[4-(trifluoromethyl)phenyl]pyrimidine-5-carboxamide]
IC50: 1000 to 10000 nM

COc1ccc(C(NC(=O)c2cnc(-c3cccnn3)nc2O)c2ccc(Cl)nc2)cc1 (stereo not shown) [Example 169, N-[(6-chloropyridin-3-yl)(4-methoxyphenyl)methyl]-4-hydroxy-2-(pyridazin-3-yl)pyrimidin-5-carboxamide]
IC50: ≤ 10 nM

O=C(NCc1cnc(-c2ccc(F)cc2)cn1)c1cnc(-n2cccn2)nc1O [Example 109, N-{[5-(4-fluorophenyl)pyrazin-2-yl]methyl}-4-hydroxy-2-(1H-pyrazol-1-yl)pyrimidine-5-carboxamide]
IC50: 10 to 100 nM

CC(NC(=O)c1cnc(-c2ccccn2)nc1O)c1ccc(F)cc1 (stereo not shown) [Example 12, N-[1-(4-fluorophenyl)ethyl]-4-hydroxy-2-pyridin-2-ylpyrimidine-5-carboxamide]
IC50: 10 to 100 nM

CC(C)CC(NC(=O)c1cnc(-c2cccnn2)nc1O)c1ccc(C#N)cc1 (single isomer, unassigned) [Example 158, N-[1-(4-cyanophenyl)-3-methylbutyl]-4-hydroxy-2-(pyridazin-3-yl)pyrimidine-5-carboxamide]
IC50: ≤ 10 nM

O=C(NCc1ccc(-c2ccccc2Cl)cc1)c1cnc(-n2cccn2)nc1O [Example 62, N-[(2′-chlorobiphenyl-4-yl)methyl]-4-hydroxy-2-(1H-pyrazol-1-yl)pyrimidine-5-carboxamide]
IC50: ≤ 10 nM

COCc1ccc(C(NC(=O)c2cnc(-c3cccnn3)nc2O)c2ccc(OC)cc2)cc1 (single isomer, unassigned) [Example 183, 4-Hydroxy-N-[[4-(methoxymethyl)phenyl](4-methoxyphenyl)methyl]-2-pyridazin-3-ylpyrimidine-5-carboxamide]
IC50: ≤ 10 nM

O=C(NCc1ccc(C(F)(F)F)cc1)c1cnc(-c2ncccn2)nc1O [Example 23, 4-Hydroxy-N-[4-(trifluoromethyl)benzyl]-2,2′-bipyrimidine-5-carboxamide]
IC50: 100 to 1000 nM

O=C(NC(c1ccccc1)c1ccncc1)c1cnc(-n2cccn2)nc1O (stereo not shown) [Example 58, 4-Hydroxy-N-[phenyl(pyridin-4-yl)methyl]-2-(1H-pyrazol-1-yl)pyrimidine-5-carboxamide]
IC50: ≤ 10 nM

C[C@H](NC(=O)c1cnc(-c2cccnn2)nc1O)c1ccc(-c2cccnc2)cc1 [Example 187, 4-hydroxy-2-pyridazin-3-yl-N-[(1S)-1-(4-pyridin-3-ylphenyl)ethyl]pyrimidine-5-carboxamide trifluoroacetate (salt)]
IC50: ≤ 10 nM
